Assay results: ChEMBL document CHEMBL1128193, “4-(Heteroarylthio)-2-biphenylyltetrazoles as nonpeptide angiotensin II antagonists” (J Med Chem, 1995)

Target: T1, Angiotensin II receptor (Rattus norvegicus, UniProt P29089+P25095+P35351)
T1 sequence (P29089 whole entry): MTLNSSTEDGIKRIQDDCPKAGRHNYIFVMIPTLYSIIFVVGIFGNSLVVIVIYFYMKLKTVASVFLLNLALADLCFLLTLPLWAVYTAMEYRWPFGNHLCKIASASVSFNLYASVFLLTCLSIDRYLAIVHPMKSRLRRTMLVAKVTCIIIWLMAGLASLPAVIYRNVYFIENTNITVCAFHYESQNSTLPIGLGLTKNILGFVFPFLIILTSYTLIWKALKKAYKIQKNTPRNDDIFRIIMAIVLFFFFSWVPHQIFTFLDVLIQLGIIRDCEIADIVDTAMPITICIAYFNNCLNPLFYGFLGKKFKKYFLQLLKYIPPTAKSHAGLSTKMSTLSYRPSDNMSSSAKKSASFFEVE
T1 sequence (P25095 whole entry): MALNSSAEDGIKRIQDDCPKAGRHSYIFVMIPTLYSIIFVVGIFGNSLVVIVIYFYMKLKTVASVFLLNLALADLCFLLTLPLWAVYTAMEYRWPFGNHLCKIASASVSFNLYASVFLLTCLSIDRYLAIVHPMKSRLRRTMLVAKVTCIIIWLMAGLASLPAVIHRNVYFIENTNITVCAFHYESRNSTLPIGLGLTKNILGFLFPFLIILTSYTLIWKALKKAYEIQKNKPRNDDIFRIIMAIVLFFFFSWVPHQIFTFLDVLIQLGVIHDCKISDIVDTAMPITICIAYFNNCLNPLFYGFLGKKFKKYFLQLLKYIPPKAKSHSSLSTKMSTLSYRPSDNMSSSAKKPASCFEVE
T1 sequence (P35351 whole entry): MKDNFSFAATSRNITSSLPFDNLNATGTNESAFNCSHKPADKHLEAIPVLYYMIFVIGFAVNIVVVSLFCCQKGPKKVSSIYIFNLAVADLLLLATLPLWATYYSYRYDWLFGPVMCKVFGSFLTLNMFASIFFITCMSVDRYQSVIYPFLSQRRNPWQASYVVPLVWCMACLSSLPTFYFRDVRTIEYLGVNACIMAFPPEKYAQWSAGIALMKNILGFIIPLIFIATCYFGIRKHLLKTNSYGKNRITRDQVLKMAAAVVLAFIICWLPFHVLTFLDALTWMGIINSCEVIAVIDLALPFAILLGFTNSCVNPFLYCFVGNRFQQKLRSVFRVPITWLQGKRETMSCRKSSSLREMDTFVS
Test: Displacement of [3H]-AII from the Angiotensin II receptor isolated from the liver of rats

IC50 | SMILES
31 nM | Cc1cc(OCc2ccc(-c3ccccc3-c3nn[nH]n3)cc2)c2ccccc2n1
> 10000 nM | Cc1nc(Sc2ccc(-c3ccccc3-c3nn[nH]n3)cc2)c2cc[nH]c2n1
270 nM | Cc1cc(CCc2ccc(-c3ccccc3-c3nn[nH]n3)cc2)c2ccccc2n1

Further lines, the molecule ahead of its results:

SMILES | IC50
Cc1nc(Sc2ccc(-c3ccccc3-c3nn[nH]n3)cc2)c2ccccc2n1 | 350 nM
CCc1cc(Sc2ccc(-c3ccccc3-c3nn[nH]n3)cc2)c2ncccc2n1 | 20 nM
Cc1cc(S(=O)(=O)c2ccc(-c3ccccc3-c3nn[nH]n3)cc2)c2ccccc2[n+]1[O-] | > 10000 nM
Cc1cc(SCc2ccc(-c3ccccc3-c3nn[nH]n3)cc2)c2ccccc2n1 | 370 nM
Cc1cc(Sc2ccc(-c3ccccc3-c3nnn(C(c4ccccc4)(c4ccccc4)c4ccccc4)n3)cc2)c2ccccc2n1 | 4700 nM
